Experimental data: US12435061B2 (priority 2020, dated 2025)
Values after ≈ are worked out from the molar mass of the structure shown. Where two headings read alike, the source gives them in different places.

Tests used:
[1] = Aqueous solubility assay in Normal Ringer Solution; conditions: Normal Ringer Solution; for solubility at 40 min: saline or isotonic, kinetic from dmso stock
Description: Following vortex and incubation for a sufficient time (e.g. 40 minutes at room temperature), solutions were filtered, quenched with acetonitrile, and analyzed by Liquid Chromotography. Solubility Limits were determined by comparison to a standard curve.

[2] = target: hTRPV3 (Homo sapiens (Human), UniProt Q8NET8); test: Whole-cell patch clamp, hTRPV3 Phase 1 / Phase 2 currents; format: cell-based
Method in brief: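 Whole-cell recordings on induced TRPV3 cells replated on coverslips, held at −40 mV with 400 ms ramps from −120 to +100 mV every 5 s; currents read at −80 and +80 mV. Ringer's external solution; current activated by heating to ≥28 °C or 20 μM 2-APB.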

[3] = Metabolic Stability assay, rat liver microsomes; format: in vitro ADME
Description: Metabolic Stability assay: The metabolic stability was determined by adding compound dissolved in DMSO to human or rat, liver microsomes. Briefly, assays were run with a starting concentration of 1 μM test article. The reaction was started by addition of NADPH regeneration components at 37° C. at which time an aliquot was immediately quenched in ice-cold acetonitrile/MeOH/H2O solution. Reaction mixture was incubated at 37° C. on a shaker, and additional aliquots were taken at 7, 15, 30 and 60 minutes. Following quench and centrifugation, samples were analyzed on HPLC/MS/MS.

[4] = Phase 1 current, human TRPV3, read-out: hTRPV3 (nM) Phase 1
[5] = Phase 1 current, inward, whole-cell patch clamp, read-out: hTRPV3 Patch P1 Inwd
[6] = Phase 2 current, inward, whole-cell patch clamp, read-out: hTRPV3 Patch P2 Inwd
[7] = Phase 1 current, read-out: hTRPV3 (nM) (Phase 1)
[8] = Phase 2 current, read-out: hTRPV3 (nM) (Phase 2)
[9] = read-out: hTRPV3 (nM) (Phase 1)

hTRPV3, sequence (Q8NET8 whole entry): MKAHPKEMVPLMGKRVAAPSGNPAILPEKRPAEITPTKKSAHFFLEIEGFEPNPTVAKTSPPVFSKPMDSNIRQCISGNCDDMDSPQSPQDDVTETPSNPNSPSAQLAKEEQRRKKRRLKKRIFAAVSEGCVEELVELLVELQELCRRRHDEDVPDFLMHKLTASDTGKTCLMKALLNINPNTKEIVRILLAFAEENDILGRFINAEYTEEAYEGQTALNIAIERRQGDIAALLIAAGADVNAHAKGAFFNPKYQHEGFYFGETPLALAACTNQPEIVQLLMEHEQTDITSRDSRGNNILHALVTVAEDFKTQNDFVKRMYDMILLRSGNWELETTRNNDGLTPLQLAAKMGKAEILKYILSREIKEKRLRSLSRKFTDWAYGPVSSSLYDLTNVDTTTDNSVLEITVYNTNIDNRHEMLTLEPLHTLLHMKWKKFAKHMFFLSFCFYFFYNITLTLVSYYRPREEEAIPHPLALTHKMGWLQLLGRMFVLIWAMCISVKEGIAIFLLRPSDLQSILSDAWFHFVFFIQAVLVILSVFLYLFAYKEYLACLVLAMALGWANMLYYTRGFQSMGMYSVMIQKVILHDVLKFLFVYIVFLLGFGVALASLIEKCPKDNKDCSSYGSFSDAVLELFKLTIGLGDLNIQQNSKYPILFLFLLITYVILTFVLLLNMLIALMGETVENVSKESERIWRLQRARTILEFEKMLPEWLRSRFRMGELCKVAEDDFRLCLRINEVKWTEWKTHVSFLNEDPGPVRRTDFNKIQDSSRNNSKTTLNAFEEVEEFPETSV

Row | SMILES | solubility at 40 min [1] | IC50 [2, 5] | IC50 [2, 7] | half-life at 1 μM ([3]; read-out: LM T1/2 (min) (rat)) | also measured
1 | CC(C)c1ccccc1-c1ccc(C2CCN(C(=O)c3ccc(Cl)cn3)C2)c(C(N)=O)c1 (stereo not drawn) [Compound 2-35] | ~3.3 µM (≈ 1.48 µg/mL) | 10 to 100 nM |  |  | IC50 [2, 4]: 61.7 nM; IC50 ([2]; Phase 2 current, human TRPV3, read-out: hTRPV3 (nM) Phase 2): 64.3 nM; IC50 [2, 6]: 10 to 100 nM; half-life at 1 μM ([3]; read-out: LM T1/2 (min) rat): 7.16 min
2 | CCc1ccccc1Oc1ccc(N2CC[C@H](OCc3ncccc3C)C2)c(CO)c1 [Compound 1-398] | ~1.4 µM (≈ 0.586 µg/mL) |  | 187 nM | 5.19 min | IC50 [2, 8]: 64.8 nM
3 | OCc1cc(C(O)c2ccccc2Cl)ccc1N1CC[C@H](Oc2ncccc2F)C1 (stereo partly drawn) [Compound 1-264, (2-chlorophenyl)(4-((S)-3-(3-fluoropyridin-2-yloxy)pyrrolidin-1-yl)-3-(hydroxymethyl)phenyl)methanol] | > 13.2 µM | 10 to 100 nM | 54.1 nM | 19.4 min | IC50 [2, 6]: 10 to 100 nM; IC50 [2, 8]: 79.3 nM
4 | CC(C)c1ccccc1Oc1ccc(N2CC[C@H](Oc3ncccc3Cl)C2)c(CCO)c1 [Compound 1-327, (S)-2-(2-(3-(3-chloropyridin-2-yloxy)pyrrolidin-1-yl)-5-(2-isopropylphenoxy)phenyl)ethanol] |  |  |  | 14.6 min | Solubility Ringer (nM) ([1]; room temperature): BLQ; IC50 ([2]; hTRPV3 Patch P1 Inwd (nM)): 10 to 100 nM; IC50 [2, 9]: 15.9 nM
5 | OCCc1cc(Oc2ccccc2F)ccc1N1CC[C@H](Oc2ncccc2F)C1 [Compound 1-313, (S)-2-(5-(2-fluorophenoxy)-2-(3-(3-fluoropyridin-2-yloxy)pyrrolidin-1-yl)phenyl)ethanol] | ~2 µM (≈ 0.825 µg/mL) | 10 to 100 nM | 72.5 nM | 9.29 min | IC50 [2, 6]: 10 to 100 nM; IC50 [2, 8]: 71.3 nM
6 | CCc1ccccc1C(=O)c1ccc(N2CC[C@H](Oc3ncccc3Cl)C2)c(CO)c1 [Compound 1-256, (S)-(4-(3-(3-chloropyridin-2-yloxy)pyrrolidin-1-yl)-3-(hydroxymethyl)phenyl)(2-ethylphenyl)methanone] | ~0.45 µM (≈ 0.197 µg/mL) | 10 to 100 nM | 50.9 nM | 6.05 min | 
7 | OCCOc1cc(-c2ccccc2)ccc1N1CC[C@@H](Oc2ccc(C(F)(F)F)cn2)C1 [Compound 1-117, (R)-2-(4-(3-(5-(trifluoromethyl)pyridin-2-yloxy)pyrrolidin-1-yl)biphenyl-3-yloxy)ethanol] | ~2 µM (≈ 0.889 µg/mL) | > 1000 nM | 1920 nM | 79.8 min | IC50 [2, 6]: 100 to 1000 nM; IC50 [2, 8]: 486 nM
8 | CC(C)c1ccccc1-c1ccc([C@@H]2CCN(C(=O)c3ccc(F)cn3)C2)c(CO)c1 [Compound 2-77] | > 15.5 µM | < 10 nM |  |  | IC50 [2, 4]: 2.27 nM; half-life at 1 μM ([3]; read-out: LM T1/2 (min) rat): 9.14 min
9 | Cc1cccc(C(=O)c2ccc(N3CC[C@H](Oc4ncccc4Cl)C3)c(CO)c2)c1 [Compound 1-282, (S)-(4-(3-(3-chloropyridin-2-yloxy)pyrrolidin-1-yl)-3-(hydroxymethyl)phenyl)(m-tolyl)methanone] | ~0.67 µM (≈ 0.283 µg/mL) | 10 to 100 nM | 62.3 nM | 16.1 min | 
10 | CCc1ccccc1C(=O)c1ccc(N2CC[C@H](Oc3ncccc3Cl)C2)c(CO)c1 [Compound 1-251, (S)-(4-(3-(3-chloropyridin-2-yloxy)pyrrolidin-1-yl)-3-(hydroxymethyl)phenyl)(2-ethylphenyl)methanone] |  | 10 to 100 nM | 102 nM |  | Solubility Ringer ([1]; room temperature): >3.6 µM; LM T1/2 (min) (rat) ([3]; 1 μM): 6.25 (rat) min
11 | O=C(c1ccc(F)cc1)c1ccc(N2CC[C@H](Oc3ncccc3Cl)C2)c(CO)c1 [Compound 1-279, (S)-(4-(3-(3-chloropyridin-2-yloxy)pyrrolidin-1-yl)-3-(hydroxymethyl)phenyl)(4-fluorophenyl)methanone] | 1.2 µM (≈ 0.512 µg/mL) | 10 to 100 nM | 56.9 nM | 18.4 min | 
12 | CCc1c(Cl)ncnc1Oc1ccc(N2CC[C@H](Oc3ncccc3Cl)C2)c(CO)c1 [Compound 1-358, (S)-(5-(6-chloro-5-ethylpyrimidin-4-yloxy)-2-(3-(3-chloropyridin-2-yloxy)pyrrolidin-1-yl)phenyl)methanol] | ~2.1 µM (≈ 0.969 µg/mL) | 100 to 1000 nM | 174 nM | 16.7 min | 
13 | CCc1ccccc1-c1ccc(C2CCN(C(=O)c3ccc(OC)cn3)C2)c(CO)c1 (stereo not drawn) [Compound 2-73, (3-(2′-ethyl-3-(hydroxymethyl)biphenyl-4-yl)pyrrolidin-1-yl)(5-methoxypyridin-2-yl)methanone] | > 26.2 µM | 10 to 100 nM |  |  | IC50 [2, 4]: 20.5 nM; half-life at 1 μM ([3]; read-out: LM T1/2 (min) rat): 9.84 min
14 | Cc1ccc(O[C@H]2CCN(c3ccc(-c4ccccc4)cc3CO)C2)nc1 [Compound 1-141, (S)-(4-(3-(5-methylpyridin-2-yloxy)pyrrolidin-1-yl)biphenyl-3-yl)methanol] | ~0.97 µM (≈ 0.35 µg/mL) | 100 to 1000 nM | 125 nM | 38.4 min | 
15 | CCc1ccccc1Oc1ccc(N2CC[C@H](Oc3ncccc3C)C2)c(CO)c1 [Compound 1-268, (S)-(5-(2-ethylphenoxy)-2-(3-(3-methylpyridin-2-yloxy)pyrrolidin-1-yl)phenyl)methanol] | 0.25 µM (≈ 0.101 µg/mL) | < 10 nM | 2.8 nM | 22 min | IC50 [2, 6]: < 10 nM; IC50 [2, 8]: ~2.54 nM
16 | COc1ccccc1-c1ccc(N2CC[C@H](Oc3ccc(C(F)(F)F)cn3)C2)c(CO)c1 [Compound 1-151, (S)-(2′-methoxy-4-(3-(5-(trifluoromethyl)pyridin-2-yloxy)pyrrolidin-1-yl)biphenyl-3-yl)methanol] |  | 100 to 1000 nM | 125 nM | 38.9 min | Solubility Ringer (nM) ([1]; room temperature): BLQ
17 | COC(c1ccc(F)cc1)c1ccc(N2CC[C@H](Oc3ncccc3Cl)C2)c(CO)c1 (stereo partly drawn) [Compound 1-289, (2-((S)-3-(3-chloropyridin-2-yloxy)pyrrolidin-1-yl)-5-((4-fluorophenyl)(methoxy)methyl)phenyl)methanol] | ~1.75 µM (≈ 0.775 µg/mL) | 10 to 100 nM | 66.2 nM | 9.22 min | 
18 | CCc1ccccc1Oc1ccc(N2CC[C@H](Oc3ncccc3F)C2)c(CO)c1 [Compound 1-267, (S)-(5-(2-ethylphenoxy)-2-(3-(3-fluoropyridin-2-yloxy)pyrrolidin-1-yl)phenyl)methanol] | ~0.38 µM (≈ 0.155 µg/mL) | 10 to 100 nM | 19.1 nM | 30.6 min | 
19 | COCc1ccccc1Oc1ccc(N2CC[C@H](Oc3ncccc3Cl)C2)c(CCO)c1 [Compound 1-297, (S)-2-(2-(3-(3-chloropyridin-2-yloxy)pyrrolidin-1-yl)-5-(2-(methoxymethyl)phenoxy)phenyl)ethanol] | 1.4 µM (≈ 0.637 µg/mL) | 10 to 100 nM | 56.6 nM | 7.44 min | 
20 | OCCOc1cc(-c2ccccc2Cl)ccc1N1CC[C@H](Oc2ccc(C(F)(F)F)cn2)C1 [Compound 1-133, (S)-2-(2′-chloro-4-(3-(5-(trifluoromethyl)pyridin-2-yloxy)pyrrolidin-1-yl)biphenyl-3-yloxy)ethanol] | 0.56 µM (≈ 0.268 µg/mL) | > 1000 nM | 1120 nM | 55 min | 
21 | NC(=O)c1cc(C(=O)c2ccccc2)ccc1N1CC[C@H](Oc2ncccc2Cl)C1 [Compound 1-136, (S)-5-benzoyl-2-(3-(3-chloropyridin-2-yloxy)pyrrolidin-1-yl)benzamide] | > 15 µM |  |  | 19.7 min | IC50 ([2]; hTRPV3 Patch P1 Inwd (nM)): > 1000 nM; IC50 ([2]; hTRPV3 Patch P2 Inwd (nM)): > 1000 nM; IC50 [2, 9]: 1620 nM; IC50 ([2]; read-out: hTRPV3 (nM) (Phase 2)): 1670 nM
22 | CCc1c(C)cccc1-c1ccc(C2CCN(C(=O)c3ccc(Cl)cn3)C2)c(CO)c1 (stereo not drawn) [Compound 2-67, (5-chloropyridin-2-yl)(3-(2′-ethyl-3-(hydroxymethyl)-3′-methylbiphenyl-4-yl)pyrrolidin-1-yl)methanone] | ~3.6 µM (≈ 1.57 µg/mL) | < 10 nM |  |  | IC50 [2, 4]: 0.698 nM; half-life at 1 μM ([3]; read-out: LM T1/2 (min) rat): 8.47 min
23 | Cc1ccccc1Oc1ccc(N2CC[C@H](Nc3ncccc3Cl)C2)c(CO)c1 [Compound 1-383, (S)-(2-(3-(3-chloropyridin-2-ylamino)pyrrolidin-1-yl)-5-(o-tolyloxy)phenyl)methanol] | ~0.35 µM (≈ 0.143 µg/mL) | 10 to 100 nM | 12.6 nM | 31.4 min | 
24 | CC(C)c1ccccc1-c1ccc([C@H]2CCN(C(=O)c3ccc(F)cn3)C2)c(CO)c1 [Compound 2-78] | > 15.4 µM | 100 to 1000 nM |  |  | IC50 [2, 4]: 234 nM; half-life at 1 μM ([3]; read-out: LM T1/2 (min) rat): 12.1 min
25 | NC(=O)c1cc(-c2ccccc2)ccc1N1CC[C@H](Nc2ncccc2Cl)C1 [Compound 1-377, (S)-4-(3-(3-chloropyridin-2-ylamino)pyrrolidin-1-yl)biphenyl-3-carboxamide] | > 3.2 µM | 100 to 1000 nM | 360 nM | 35.6 min | IC50 [2, 6]: 100 to 1000 nM; IC50 [2, 8]: 318 nM
